# Experimental data reported in BindingDB's records for doi:10.7270/Q25719N6 (The Scripps Research Institute Molecular Screening Center, 2013).
# pIC50: −log10 of the molar value.
# Target: T1, Fructose-bisphosphate aldolase (Mycobacterium tuberculosis (strain ATCC 25618 / H37Rv), UniProt P9WQA3)
# T1 sequence (P9WQA3 whole entry): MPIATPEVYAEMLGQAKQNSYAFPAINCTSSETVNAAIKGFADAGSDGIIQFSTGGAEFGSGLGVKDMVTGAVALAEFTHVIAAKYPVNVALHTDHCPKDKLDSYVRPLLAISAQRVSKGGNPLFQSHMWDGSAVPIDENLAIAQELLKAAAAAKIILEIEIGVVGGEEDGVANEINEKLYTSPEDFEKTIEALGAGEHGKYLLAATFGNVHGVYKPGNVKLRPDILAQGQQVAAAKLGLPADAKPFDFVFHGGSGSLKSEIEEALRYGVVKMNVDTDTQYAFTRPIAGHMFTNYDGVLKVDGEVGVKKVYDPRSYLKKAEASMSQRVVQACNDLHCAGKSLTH
row,Compound,pIC50
1,O=C(NCc1cccc(Cl)c1)C1=C2NS(=O)(=O)C=CN2C=CC1 [MLS002162417],5.58
2,N#CC1=C(C2CC2)CC(c2ccccc2)C(C#N)C1=N (configuration not stated) [SMR000039375],< 5.00
